“Also recorded” adds a separate entry of the source. Read-outs that look alike come from different tables or passages of the source.
Experiments:
ApoE null mice [1] = assay: HDL function after D-4F and/or statin in drinking water for 24 hours; assay type: in vivo
[2] = test system: mice fed an atherogenic diet; conditions: 20 μg daily; cited from earlier work
LDL receptor null mice = assay: HDL protective capacity in LDL receptor null mice given peptide in drinking water; assay type: in vivo; conditions: 0.25 or 0.5 mg per ml drinking water, 24 or 48 hrs; mouse HDL at 100 μg/ml
Procedure: D-4F designated as F, or the apoJ peptide made from D amino acids (D-J336, designated as J) was added to the drinking water of LDL receptor null mice (4 per group) at 0.25 or 0.5 mg per ml of drinking water. After 24- or 48-hrs blood was collected from the mice and their HDL was isolated and tested for its ability to protect against LDL-induced monocyte chemotactic activity. Assay controls included culture wells that received no lipoproteins (no addition), or control human LDL alone (designated as LDL, 200 μg cholesterol/ml), or control LDL+control human HDL (designated as +HDL, 350 μg HDL cholesterol). For testing the mouse HDL, the control LDL was added together with mouse HDL (+F HDL or +J HDL) to artery wall cell cultures. The mouse HDL was added at 100 μg cholesterol/ml respectively.

ApoE null mice [3] = assay: Protection against LDL-induced monocyte chemotactic activity by HDL from apo E null mice given oral peptides; assay type: in vivo; conditions: for activity of murine HDL against LDL-induced monocyte chemotactic activity: drinking water, 24 hrs, murine HDL at 100 μg/ml
Procedure: After 24 hrs blood was collected, plasma fractionated by FPLC and fractions containing LDL (designated as mLDL for murine LDL) and fractions containing HDL (designated as mHDL) were separately pooled and HDL protective capacity against LDL oxidation as determined by LDL-induced monocyte chemotactic activity was determined. For the assay controls the culture wells received no lipoproteins (no additions), mLDL alone (at 200 μg cholesterol/ml), or mLDL+standard normal human HDL (designated as Cont. h HDL, at 350 μg HDL cholesterol/ml).
For testing the murine HDL, mLDL together with murine HDL (+F mHDL or +J mHDL) were added to artery wall cell cultures. […] The murine HDL was used at 100 μg cholesterol/ml.

ApoE null mice [4] = assay: HDL Inflammatory Index after D-4F or Reverse D-4F by stomach tube; assay type: in vivo; conditions: 0, 3, 6, 12 or 25 micrograms by stomach tube, blood 7 hours later
Procedure: Female apoE null mice were administered by stomach tube 0, 3, 6, 12, or 25 micrograms of D-4F or Reverse D-4F in 100 microliters of water. Blood was obtained 7 hours later and the plasma was fractionated by FPLC. A standard control human LDL was added to human artery wall cells at a concentration of 100 micrograms of LDL-cholesterol/mL (LDL). The resulting monocyte chemotactic activity was normalized to 1.0. The same LDL at the same concentration was added to the human artery wall cells together with HDL at 50 micrograms HDL-cholesterol/mL from a normal human (hHDL) or from the apoE null mice that received the dose of D-4F or Reverse D-4F shown on the X-axis. The resulting monocyte chemotactic activity was normalized to that of the LDL added without HDL. The resulting value is the HDL Inflammatory Index. The results shown are the Mean±S.D. for the data from three separate experiments.

ApoE null mice [5] = assay: Trabecular bone mineral density after D-4F in drinking water; assay type: in vivo; conditions: drinking water for 6 weeks
Obese Zucker rats = assay: Plasma glucose and lipid hydroperoxides in obese Zucker rats given D-4F; assay type: in vivo; conditions: 5.0 mg/kg/day intraperitoneal, 10 days, rats 26 weeks of age
Procedure: Obese Zucker rats 26 weeks of age were bled and then treated with daily intraperitoneal injections of D-4F (5.0 mg/kg/day). After 10 days the rats were bled again plasma glucose and lipid hydroperoxides (LOOH) were determined. *p=0.027; ** p=0.0017.

ApoE null mice [6] = assay: HDL and pre-beta HDL inhibition of LDL-induced monocyte chemotaxis after feeding solution-phase synthesized D-4F; assay type: in vivo; conditions: 5 micrograms fed, bled twelve hours after feeding was started
Description: ApoE null mice were fed 5 micrograms of the D-4F synthesized as described above (Frgmnt) or the mice were given the same amount of mouse chow without D-4F (Chow). Twelve hours after the feeding was started, the mice were bled and their plasma was fractionated on FPLC.

[7] = mouse, in vivo, po
[8] = Association with pre-beta HDL/HDL and clearance from the circulation after an oral dose
[9] = test system: Human aortic endothelial cells; assay: Prevention of LDL-induced monocyte chemotactic activity in vitro, co-incubation; assay type: cell-based; conditions: co-incubation with control human LDL 200 μg protein/ml, overnight
Procedure: FIG. 1 illustrates a comparison of the effect of […] et al. (2002) Circulation, 105: 290-292) with the effect of an apoJ peptide made from D amino acids (D-J336, […], SEQ ID NO:999)) on the prevention of LDL-induced monocyte chemotactic activity in vitro in a co-incubation. […] D-J336 or D-4F was added to other wells in a concentration range as indicated plus control human LDL (200 μg protein/ml). Following overnight incubation, the supernatants were assayed for monocyte chemotactic activity.

[10] = test system: Human aortic endothelial cells; assay: Prevention of LDL-induced monocyte chemotactic activity by pre-treatment (pre-incubation) of artery wall cells; assay type: cell-based; conditions: 6 hrs pre-incubation, then control human LDL 200 μg protein/ml
Procedure: FIG. 2 illustrates a comparison of the effect of D-4F with the effect of D-J336 on the prevention of LDL induced monocyte chemotactic activity in a pre-incubation. Human aortic endothelial cells were pre-incubated with D-J336 or D-4F at 4, 2, and 1 μg/ml for DJ336 or 100, 50, 25, and 12.5 μg/ml for D-4F for 6 hrs. The cultures were then washed and were incubated with medium alone (no addition), or with control human LDL (200 μg protein/ml), or with control human LDL+control human HDL (350 μg HDL protein/ml) as assay controls. The wells that were pre-treated with peptides received the control human LDL at 200 μg protein/ml. Following overnight incubation, the supernatants were assayed for monocyte chemotactic activity.

ApoE null mice [11] = assay: Ability of LDL from apoE null mice given oral peptides to induce monocyte chemotactic activity (LDL susceptibility to oxidation); assay type: in vivo; conditions: added to the drinking water, 24 hrs
Procedure: FIG. 5 illustrates the effect of oral apo A-1 peptide mimetic and apoJ peptide on LDL susceptibility to oxidation. […] After 24 hrs blood was collected from the mice shown in FIG. 4, plasma fractionated by FPLC and fractions containing LDL (designated as mLDL for murine LDL) were pooled and LDL susceptibility to oxidation as determined by induction of monocyte chemotactic activity was determined. For the assay controls the culture wells received no lipoproteins (no additions), mLDL alone (at 200 μg cholesterol/ml), or mLDL+standard normal human HDL (designated as Cont. h HDL, 350 μg HDL cholesterol).
Murine LDL, mLDL, from mice that received the D-4F (F mLDL) or those that received the apoJ peptide (J mLDL) were added to artery wall cell cultures.

ApoE null mice [12] = assay: HDL protective capacity against PAPC oxidation by HPODE, HDL from apo E null mice given oral peptides; assay type: in vivo; conditions: added to the drinking water, 24 hrs; murine HDL 100 μg cholesterol/ml
Procedure: After 24 hrs blood was collected, plasma fractionated by FPLC and fractions containing HDL (designated as mHDL) were pooled and HDL protective capacity against PAPC oxidation as determined by the induction of monocyte chemotactic activity was determined. For the assay controls the culture wells received no lipoproteins (no additions), the phospholipid PAPC at 20 μg/ml+HPODE, at 1.0 μg/ml, or PAPC+HPODE plus standard normal human HDL (at 350 μg HDL cholesterol/ml and designated as +Cont. h HDL).
For testing the murine HDL, PAPC+HPODE together with murine HDL (+F mHDL or +J mHDL) were added to artery wall cell cultures. […] The murine HDL was used at 100 μg cholesterol/ml.

PON1 = conditions: added to the drinking water, 24 hrs
Procedure: After 24 hrs blood was collected and plasma was assayed for PON1 activity.

human LDL = assay: Treating human LDL in vitro, removal of seeding molecules; assay type: biochemical
Description: (§1) We discovered that normal HDL inhibits three steps in the formation of mildly oxidized LDL. […] These seeding molecules were required for cocultures of human artery wall cells to be able to oxidize LDL and for the LDL to induce the artery wall cells to produce monocyte chemotactic activity.

mice = assay: LDL oxidation resistance after injection of apo A-I into mice; assay type: in vivo
Description: as §1

human volunteers = assay: LDL oxidation resistance after infusion of apo A-I into humans; assay type: in vivo
Description: as §1

**Q.** For `CC(C)c1c(C(=O)Nc2ccccc2)c(-c2ccccc2)c(-c2ccc(F)cc2)n1CC[C@@H](O)C[C@@H](O)CC(=O)O` [atorvastatin, reference compound], which “HDL function, statin alone” value (ApoE null mice [1]; 0.05 mg/ml in drinking water for 24 hours) is on record?
**A.** Its value is “did not improve HDL function”.

**Q.** With “Ac-D-W-L-K-A-F-Y-D-K-V-F-E-K-F-K-E-F-F-NH2 (Ac-DWLKAFYDKVFEKFKEFF-NH2) [Peptide 5F]” as the molecule, how does the “LDL oxidation and induction of monocyte chemotactic activity, PBS-injected versus peptide-injected mice” value [2] read?
**A.** The value was “more readily oxidized and more readily induced monocyte chemotactic activity”.

**Q.** What does the source list for “Ac-DWFKAFYDKVAEKFKEAF-NH2 [Peptide D-4F]”?
**A.** activity of mouse HDL in preventing control LDL from inducing monocyte chemotactic activity (LDL receptor null mice): as active as 350 μg/ml of control human HDL; activity of murine HDL against LDL-induced monocyte chemotactic activity (ApoE null mice [3]): as active as 350 μg/ml of normal human HDL; biological activity (HDL Inflammatory Index), D-4F versus Reverse D-4F (ApoE null mice [4]): not significantly different; HDL function, D-4F alone (ApoE null mice [1]; 1 μg/ml in drinking water for 24 hours): did not significantly improve HDL function; also recorded: no effect on HDL function; HDL function, D-4F together with statin (ApoE null mice [1]; D-4F 1 μg/ml together with 0.05 mg/ml of atorvastatin or pravastatin in drinking water): significant improvement in HDL function; anti-inflammatory activity of apoE null HDL compared with normal human HDL, D-4F together with statin (ApoE null mice [1]; mouse HDL at 50 μg/ml of HDL-cholesterol, HPODE oxidizing PAPC in cocultures of human artery wall cells): as anti-inflammatory as 350 μg/ml of normal human HDL; also recorded: as effective as normal human HDL at 350 μg/ml of HDL-cholesterol; trabecular bone mineral density (ApoE null mice [5]): dramatically increased; symptoms of diabetes (blood glucose, lipid hydroperoxides) (Obese Zucker rats): effective in mitigating symptoms of diabetes; biological activity in producing HDL and pre-beta HDL that inhibit LDL-induced monocyte chemotaxis (ApoE null mice [6]): very biologically active; association with pre-beta HDL and HDL [7]: rapidly associates with pre-beta HDL and HDL; detectability in the circulation [7]: essentially non-detectable

**Q.** Which “biological activity (HDL Inflammatory Index), D-4F versus Reverse D-4F” value (ApoE null mice [4]) does the source give for “Ac-FAEKFKEAVKDYFAKFWD-NH2 [Reverse D-4F]” here?
**A.** The value was “not significantly different”.

**Q.** For “Ac-L V G R Q L E E F L-NH2 [D-[113-122]apoJ]”, which “association with pre-beta HDL and HDL” value ([8]; after an oral dose) is on record?
**A.** Its value is “slowly associates with pre-beta HDL and to a lesser extent with HDL”.

**Q.** What about the “time remaining associated with HDL fractions” value ([8]; mouse, in vivo) of the same molecule?
**A.** Its value is “at least 36 hours”.

**Q.** Which “in vitro concentration that prevents LDL-induced monocyte chemotactic activity, relative to the concentration required for D-4F” value [9] does the source give for Ac-LLEQLNEQFNWVSRLANLTQGE-NH2 [D-J336] here?
**A.** The value was 10 to 25 times less.

**Q.** What about the “potency in preventing LDL oxidation by artery wall cells in vitro relative to D-4F” value [10] of the same molecule?
**A.** Its value is 10-25 times more potent.

**Q.** And the “activity of mouse HDL in preventing control LDL from inducing monocyte chemotactic activity” value (LDL receptor null mice)?
**A.** The value was “as active as 350 μg/ml of control human HDL”.

**Q.** And the “potency in enhancing HDL protective capacity compared with D-4F” value (ApoE null mice [3]; added to the drinking water, apo E null mice)?
**A.** Its value is “as potent as D-4F”.

**Q.** And the “activity of murine HDL against LDL-induced monocyte chemotactic activity” value (ApoE null mice [3])?
**A.** The value was “as active as 350 μg/ml of normal human HDL”.

**Q.** What about the “potency in rendering LDL resistant to oxidation by human artery wall cells compared with D-4F” value (ApoE null mice [11]) of the same molecule?
**A.** The value was “slightly more potent than D-4F”.

**Q.** What about the “potency in causing HDL to inhibit oxidation of PAPC by HPODE compared with D-4F” value (ApoE null mice [12]) of the same molecule?
**A.** Its value is “as potent as D-4F”.

**Q.** What about the “potency in increasing paraoxonase activity compared with D-4F” value (PON1) of the same molecule?
**A.** Its value is “at least as potent as D-4F”.

**Q.** For “apo A-I: the major protein of HDL, apolipoprotein A-I”, which “effect on seeding molecules (HPODE, HPETE) of human LDL” value (human LDL) is on record?
**A.** Its value is “removed seeding molecules from the LDL”.

**Q.** And the “oxidation of LDL isolated after injection, by human artery wall cells” value (mice)?
**A.** Its value is “resistant to oxidation by human artery wall cells”.

**Q.** And the “oxidation of LDL isolated after infusion, by human artery wall cells” value (human volunteers)?
**A.** Its value is “resistant to oxidation by human artery wall cells”.
